# Assay results published in patent US20240138406A1, “ANTIMICROBIAL PEPTIDE SCYAMPCIN44-63 AND APPLICATION THEREOF” (Xiamen University, priority 2021, published 2024).
# No end group written: not given here.
# Experiments:
# [1] = system: Human embryonic kidney 293T (HEK-293T) cells; type: cell-based
# Description: (§1) IV. Cytotoxicity of the […]44-63 is measured and evaluated by using 3-(4,5-dimethylthiazol-2-yl)-5-(3-carboxymethoxyphenyl)-2-(4-sulfophenyl)-2H-tetrazolium (MTS) 1. Human embryonic kidney 293T (HEK-293T) cells and epithelioma papulosum […] (EPC) cells are selected to assess the cytotoxicity of the […]44-63. […] HEK-293T cells are incubated in a cell incubator with 5% CO2 at 37° C., and EPC cells are incubated in a cell incubator with 5% CO2 at 28° C. (2) 50 μL of medium is carefully sucked out, fresh media with or without different concentrations of the […]44-63 are respectively added to a corresponding well, put in a corresponding cell condition, and incubated for another 24 hours while leaving to stand. (3) 20 μL of an MTS-Phenazinemethosulfate (PMS) mixed solution is added and incubated for 4 hours, absorbance of each well is measured at OD492 nm in a microplate reader, and cell viabilities are calculated.
# [2] = system: epithelioma papulosum cyprini (EPC) cells; type: cell-based
# Description: as §1
# [3] = system: Staphylococcus aureus CGMCC 1.2465; conditions: CGMCC 1.2465, 24 h
# [4] = system: Enterococcus faecium CGMCC 1.131; conditions: CGMCC 1.131, 24 h
# [5] = system: Listeria monocytogenes CGMCC 1.10753; conditions: CGMCC 1.10753, 24 h
# [6] = system: Bacillus cereus CGMCC 1.3760; conditions: CGMCC 1.3760, 24 h
# [7] = system: Staphylococcus aureus QZ19131; conditions: QZ19131, 24 h
# [8] = system: Enterococcus faecium QZ18080; conditions: QZ18080, 24 h
# [9] = system: Enterococcus faecalis QZ19138; conditions: QZ19138, 24 h
# [10] = system: Shigella flexneri CGMCC 1.1868; conditions: 24 h
# [11] = system: Acinetobacter baumannii CGMCC 1.6769; conditions: CGMCC 1.6769, 24 h
# [12] = system: Escherichia coli CGMCC 1.2389; conditions: CGMCC 1.2389, 24 h
# [13] = system: Pseudomonas aeruginosa CGMCC 1.1785; conditions: CGMCC 1.1785, 24 h
# [14] = system: Acinetobacter baumannii QZ20141; conditions: QZ20141, 24 h
# Escherichia coli QZ18109 = conditions: QZ18109, 24 h
# [15] = system: Pseudomonas aeruginosa QZ18071; conditions: QZ18071, 24 h
# [16] = system: Klebsiella pneumoniae QZ18106; conditions: QZ18106, 24 h
# [17] = system: Cryptococcus neoformans CGMCC 2.1563; conditions: CGMCC 2.1563, 24 h
# [18] = system: Candida albicans CGMCC 2.2411; conditions: CGMCC 2.2411, 24 h
# [19] = system: Fusarium graminearum CGMCC 3.4521; conditions: Filamentous fungi, incubated 24 hours
# [20] = system: Fusarium solani CGMCC 3.584; conditions: 24 h
substance,measurement,setting,value
GKKKKRNMMKTKEPGIIFFF-NH2 [Scyampcin44-63],"Cytotoxicity (cell viability, MTS)",[1],no cytotoxicity
same,"Cytotoxicity (cell viability, MTS)",[2],no cytotoxicity
same,MBC,[3],3 to 6 µM
same,MBC,[4],0 to 3 µM
same,MBC,[5],0 to 3 µM
same,MBC,[6],3 to 6 µM
same,MBC,[7],3 to 6 µM
same,MBC,[8],0 to 3 µM
same,MBC,[9],3 to 6 µM
same,MBC,[10],0 to 3 µM
same,MBC,[11],0 to 3 µM
same,MBC,[12],0 to 3 µM
same,MBC,[13],6 to 12 µM
same,MBC,[14],3 to 6 µM
same,MBC,Escherichia coli QZ18109,0 to 3 µM
same,MBC,[15],6 to 12 µM
same,MBC,[16],3 to 6 µM
same,MBC,[17],0 to 3 µM
same,MBC,[18],3 to 6 µM
same,MBC,[19],3 to 6 µM
same,MBC,[20],3 to 6 µM
